Measured values taken from patent US20220289765A1, “CRYSTAL OF CARCINOGENIC FUSED KINASE INHIBITOR AND APPLICATIONS THEREOF” (Simcere Pharmaceutical Co., Ltd., priority 2019, published 2022).

Legend:
Ros-G2032R = molecular target: T1, Ros-G2032R (Homo sapiens, UniProt P08922, G2032R); experiment: Kinase inhibitory activity (33P-ATP filtration-binding, Reaction Biology Corp.); assay type: biochemical; conditions: read-out: Half Inhibitory Concentrations of Kinases IC50, Ros-G2032R
T1 construct: purchased Reaction Biology Corp
T1 sequence (P08922 28-2347 G2032R): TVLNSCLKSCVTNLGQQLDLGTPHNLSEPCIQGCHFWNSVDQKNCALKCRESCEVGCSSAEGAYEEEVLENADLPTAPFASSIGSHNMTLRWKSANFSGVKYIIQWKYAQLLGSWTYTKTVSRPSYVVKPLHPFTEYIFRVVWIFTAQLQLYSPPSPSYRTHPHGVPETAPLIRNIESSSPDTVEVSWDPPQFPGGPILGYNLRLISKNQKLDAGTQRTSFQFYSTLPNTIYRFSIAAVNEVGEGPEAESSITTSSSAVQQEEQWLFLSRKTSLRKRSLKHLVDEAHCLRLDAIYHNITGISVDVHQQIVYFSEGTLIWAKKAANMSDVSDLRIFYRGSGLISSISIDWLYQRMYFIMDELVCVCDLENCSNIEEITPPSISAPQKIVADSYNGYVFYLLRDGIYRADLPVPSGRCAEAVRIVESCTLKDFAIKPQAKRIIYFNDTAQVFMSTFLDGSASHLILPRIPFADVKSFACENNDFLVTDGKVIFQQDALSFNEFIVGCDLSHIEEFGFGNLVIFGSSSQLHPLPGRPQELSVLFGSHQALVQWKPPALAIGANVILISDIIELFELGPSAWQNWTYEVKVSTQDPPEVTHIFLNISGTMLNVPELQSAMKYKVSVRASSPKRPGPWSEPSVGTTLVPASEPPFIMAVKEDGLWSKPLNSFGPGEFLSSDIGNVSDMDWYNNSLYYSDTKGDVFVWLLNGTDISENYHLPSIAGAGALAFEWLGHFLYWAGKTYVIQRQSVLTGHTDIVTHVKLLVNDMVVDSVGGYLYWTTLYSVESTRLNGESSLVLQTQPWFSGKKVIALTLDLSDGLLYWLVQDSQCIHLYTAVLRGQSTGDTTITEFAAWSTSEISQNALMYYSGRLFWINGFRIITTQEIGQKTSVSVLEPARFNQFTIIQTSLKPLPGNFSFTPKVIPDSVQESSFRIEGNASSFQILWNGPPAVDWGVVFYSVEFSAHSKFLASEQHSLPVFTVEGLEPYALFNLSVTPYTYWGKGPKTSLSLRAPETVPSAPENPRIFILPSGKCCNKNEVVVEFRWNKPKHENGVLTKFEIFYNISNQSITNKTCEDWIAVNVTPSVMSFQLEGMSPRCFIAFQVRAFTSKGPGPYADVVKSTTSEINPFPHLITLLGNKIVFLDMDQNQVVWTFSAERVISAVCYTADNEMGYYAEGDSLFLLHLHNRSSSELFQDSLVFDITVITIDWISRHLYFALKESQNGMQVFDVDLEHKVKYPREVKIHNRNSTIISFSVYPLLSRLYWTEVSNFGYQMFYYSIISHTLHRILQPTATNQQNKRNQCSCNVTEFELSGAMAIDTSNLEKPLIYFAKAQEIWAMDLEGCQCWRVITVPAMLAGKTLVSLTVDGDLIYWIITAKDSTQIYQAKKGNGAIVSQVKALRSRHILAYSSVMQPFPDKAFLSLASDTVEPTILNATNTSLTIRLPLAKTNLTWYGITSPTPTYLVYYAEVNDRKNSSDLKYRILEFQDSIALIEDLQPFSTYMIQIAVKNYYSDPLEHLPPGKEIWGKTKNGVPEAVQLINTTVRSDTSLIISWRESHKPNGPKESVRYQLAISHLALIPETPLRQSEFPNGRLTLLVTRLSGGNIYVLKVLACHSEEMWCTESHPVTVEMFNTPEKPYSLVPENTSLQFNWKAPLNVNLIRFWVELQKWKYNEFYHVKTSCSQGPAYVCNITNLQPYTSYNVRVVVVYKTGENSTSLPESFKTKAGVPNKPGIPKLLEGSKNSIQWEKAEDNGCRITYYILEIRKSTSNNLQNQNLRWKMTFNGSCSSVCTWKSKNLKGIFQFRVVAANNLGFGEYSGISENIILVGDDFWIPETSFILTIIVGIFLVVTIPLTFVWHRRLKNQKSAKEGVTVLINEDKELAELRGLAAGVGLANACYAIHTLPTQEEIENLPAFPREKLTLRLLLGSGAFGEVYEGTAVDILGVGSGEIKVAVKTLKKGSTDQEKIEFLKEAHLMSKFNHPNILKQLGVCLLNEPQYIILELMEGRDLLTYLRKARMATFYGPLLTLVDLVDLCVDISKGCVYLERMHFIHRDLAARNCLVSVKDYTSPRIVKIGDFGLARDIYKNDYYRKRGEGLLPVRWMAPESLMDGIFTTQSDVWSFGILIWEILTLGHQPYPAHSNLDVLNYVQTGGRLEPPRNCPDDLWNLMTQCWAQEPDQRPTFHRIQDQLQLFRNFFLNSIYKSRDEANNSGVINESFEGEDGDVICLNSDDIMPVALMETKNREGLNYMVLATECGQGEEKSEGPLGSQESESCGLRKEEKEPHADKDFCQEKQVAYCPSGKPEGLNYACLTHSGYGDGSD
Experimental: (§1) The resulting mixture was incubated at room temperature for 20 minutes, and a certain concentration of 33P-ATP was added to the reaction mixture to initiate the reaction, followed by incubation at room temperature for 120 minutes. Finally, the radioactivity of the reactants was detected by a filtration-binding method. The final kinase activity was expressed by the ratio of the remaining kinase activity in the test sample to the kinase activity of the DMSO control group. The dose-effect curve was fitted by GraphPad software and the IC50 values were calculated.

TrkA = molecular target: T2, TrkA (Homo sapiens, UniProt P04629); experiment: as above; assay type: biochemical; conditions: read-out: Half Inhibitory Concentrations of Kinases IC50, TrkA
T2 construct: purchased Reaction Biology Corp
T2 sequence (P04629 33-796): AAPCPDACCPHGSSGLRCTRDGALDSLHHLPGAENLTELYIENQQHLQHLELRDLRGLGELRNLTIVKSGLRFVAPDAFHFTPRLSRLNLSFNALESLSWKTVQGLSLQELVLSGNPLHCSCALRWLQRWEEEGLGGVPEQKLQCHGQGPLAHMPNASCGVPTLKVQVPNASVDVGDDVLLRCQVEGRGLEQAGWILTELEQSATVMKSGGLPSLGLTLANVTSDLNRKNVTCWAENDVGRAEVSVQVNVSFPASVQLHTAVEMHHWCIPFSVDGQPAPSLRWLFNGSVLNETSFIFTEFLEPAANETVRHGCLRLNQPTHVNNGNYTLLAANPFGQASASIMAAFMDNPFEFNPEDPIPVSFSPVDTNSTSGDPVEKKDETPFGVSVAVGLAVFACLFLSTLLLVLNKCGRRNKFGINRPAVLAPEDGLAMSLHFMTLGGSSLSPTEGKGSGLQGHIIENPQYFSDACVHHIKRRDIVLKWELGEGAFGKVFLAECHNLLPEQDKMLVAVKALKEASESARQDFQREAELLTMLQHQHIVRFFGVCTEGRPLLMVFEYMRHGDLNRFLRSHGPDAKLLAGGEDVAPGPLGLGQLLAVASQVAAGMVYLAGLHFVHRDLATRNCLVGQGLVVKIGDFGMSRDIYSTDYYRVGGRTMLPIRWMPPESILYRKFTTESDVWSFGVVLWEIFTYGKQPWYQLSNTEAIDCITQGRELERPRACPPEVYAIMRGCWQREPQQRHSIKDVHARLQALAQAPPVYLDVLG
Experimental: as §1

TrkC = molecular target: T3, TrkC (Homo sapiens, UniProt Q16288); experiment: as above; assay type: biochemical; conditions: read-out: Half Inhibitory Concentrations of Kinases IC50, TrkC
T3 construct: purchased Reaction Biology Corp
T3 sequence (Q16288 32-839): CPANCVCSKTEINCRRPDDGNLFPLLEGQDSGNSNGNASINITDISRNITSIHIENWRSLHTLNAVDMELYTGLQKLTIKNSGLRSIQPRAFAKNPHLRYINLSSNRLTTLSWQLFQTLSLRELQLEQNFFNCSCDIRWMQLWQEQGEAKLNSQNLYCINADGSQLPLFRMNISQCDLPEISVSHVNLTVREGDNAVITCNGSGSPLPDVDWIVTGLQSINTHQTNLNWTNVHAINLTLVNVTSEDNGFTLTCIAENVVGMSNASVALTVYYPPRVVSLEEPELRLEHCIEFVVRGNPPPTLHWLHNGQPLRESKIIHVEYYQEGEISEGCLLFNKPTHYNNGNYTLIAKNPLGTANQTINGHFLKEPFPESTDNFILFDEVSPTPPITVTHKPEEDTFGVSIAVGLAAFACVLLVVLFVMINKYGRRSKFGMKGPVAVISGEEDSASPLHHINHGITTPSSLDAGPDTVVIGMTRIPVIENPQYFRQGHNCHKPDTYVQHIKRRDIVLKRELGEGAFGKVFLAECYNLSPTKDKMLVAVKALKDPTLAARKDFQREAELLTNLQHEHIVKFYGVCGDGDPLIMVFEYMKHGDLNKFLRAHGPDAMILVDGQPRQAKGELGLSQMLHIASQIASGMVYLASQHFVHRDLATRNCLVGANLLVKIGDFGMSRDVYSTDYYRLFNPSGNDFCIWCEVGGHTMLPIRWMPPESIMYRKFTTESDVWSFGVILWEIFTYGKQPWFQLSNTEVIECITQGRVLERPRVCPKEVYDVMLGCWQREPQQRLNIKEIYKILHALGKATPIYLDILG
Experimental: as §1

TrkA-G667C = molecular target: T4, TrkA-G667C (Homo sapiens, UniProt P04629, G667C); experiment: as above; assay type: biochemical; conditions: read-out: Half Inhibitory Concentrations of Kinases IC50, TrkA-G667C
T4 construct: purchased Reaction Biology Corp
T4 sequence (P04629 33-796 G667C): as the sequence (P04629 33-796) above, with G635C counted along it
Experimental: as §1

Ros1 = molecular target: T5, Ros1 (Homo sapiens, UniProt P08922); experiment: as above; assay type: biochemical; conditions: read-out: Half Inhibitory Concentrations of Kinases IC50, Ros1
T5 construct: purchased Reaction Biology Corp
T5 sequence (P08922 28-2347): as the sequence (P08922 28-2347 G2032R) above, with R2005G counted along it
Experimental: as §1

TrkA-G595R = molecular target: T6, TrkA-G595R (Homo sapiens, UniProt P04629, G595R); experiment: as above; assay type: biochemical; conditions: read-out: Half Inhibitory Concentrations of Kinases IC50, TrkA-G595R
T6 construct: purchased Reaction Biology Corp
T6 sequence (P04629 33-796 G595R): as the sequence (P04629 33-796) above, with G563R counted along it
Experimental: as §1

[1] = test system: Ba/F3 SLC34A2-ROS1-G2032R; experiment: Cell proliferation inhibition (CellTiter-Glo, 72 h); assay type: cell-based; conditions: Mus musculus, BaF3, read-out: Half Inhibitory Concentrations of Cells IC50, Ba/F3 SLC34A2-ROS1-G2032R
[2] = test system: human lung cancer LU-01-0414 subcutaneous xenograft tumor; experiment: Efficacy test in mice, LU-01-0414 subcutaneous xenograft; assay type: in vivo, BALB/c mouse; conditions: PO, 14 days, LU-01-0414 xenograft
Experimental: The in vivo efficacy of test drugs such as the compound of Formula (I) on human lung cancer LU-01-0414 subcutaneous xenograft tumor in a BALB/c mouse model was evaluated.
(§2) The compounds were prepared into clear solutions using 5% DMSO+10% solutol+85% water as a solvent for administration in PO (gavage) groups.
(§3) The tumor diameters were measured twice a week using a vernier caliper. The formula for calculating the tumor volume is: V=0.5×a×b^2, wherein a and b represent the long diameter and the short diameter of the tumor, respectively. The antitumor efficacy of the compounds was evaluated with TGI (%), which reflects the inhibition rate of tumor growth.
(§4) Statistical analysis was performed using SPSS software based on relative tumor volume and tumor weight at the end of the experiment. Comparisons among multiple groups were analyzed by one-way ANOVA. If the variances were homogeneous (no significant difference in F-values), the analysis was performed by the Tukey's method, and if the variances were not homogeneous (significant difference in F-values), the test was performed by the Games-Howell method. P<0.05 was considered as a significant difference.

[3] = test system: human colon cancer cell line KM12 cells subcutaneous xenograft tumor; experiment: Efficacy test in mice, KM12 subcutaneous xenograft; assay type: in vivo, BALB/c mouse; conditions: PO
Experimental: The in vivo efficacy of test drugs such as the compound of Formula (I) on human colon cancer cell line KM12 cells subcutaneous xenograft tumor in a BALB/c mouse model was evaluated.
as §2
as §3, with “diameter was” for “diameters were”
as §4

Work on O=C1NC2(CC2)COc2ncc(F)cc2[C@H]2CCON2c2ccn3ncc1c3n2 [Compound of Formula (I)] yielded an IC50 (Ros-G2032R) of 0.4 nM, an IC50 (TrkA) of 2.07 nM and an IC50 (TrkC) of 0.14 nM. For the same molecule, the IC50 (TrkA-G667C) was 7 nM, the IC50 (Ros1) was 0.14 nM and the IC50 (TrkA-G595R) was 3.6 nM. For the same molecule, the IC50 [1] was 16.1 nM, the T/C ([2]; 3 mg/kg BID) was 9.57% and the TGI ([2]; 3 mg/kg BID) was 118.02%. It also gave a T/C ([2]; 15 mg/kg BID) of 3.07%, a TGI ([2]; 15 mg/kg BID) of 126.88% and a T/C ([2]; 30 mg/kg BID) of 1.87%. It also gave a TGI ([2]; 30 mg/kg BID) of 128.36%, a T/C ([3]; 3 mg/kg) of 33.18% and a TGI ([3]; 3 mg/kg) of 71.23%. It also gave a T/C ([3]; 15 mg/kg) of 15.63% and a TGI ([3]; 15 mg/kg) of 88.61%.
